Data: US20260356819A1, “OXOISOINDOLINYL-SUBSTITUTED […] DERIVATIVE AND USE THEREOF” (GLUETACS THERAPEUTICS (SHANGHAI) CO., LTD., priority 2023, published 2026)

Columns and labels:
Assay type in all cases: cell-based
Conditions in all cases: compounds at 50 nM and 500 nM
GSPT1 = molecular target: T1, GSPT1 (Homo sapiens, UniProt P15170+Q96SW2); experiment: Western blot degradation of GSPT1 in hPBMCs (24 h)
T1 construct: The supernatant was aspirated as the extracted total cell protein; endogenous in cells; host or cells: human peripheral blood mononuclear cells (hPBMCs)
T1 sequence (P15170 whole entry): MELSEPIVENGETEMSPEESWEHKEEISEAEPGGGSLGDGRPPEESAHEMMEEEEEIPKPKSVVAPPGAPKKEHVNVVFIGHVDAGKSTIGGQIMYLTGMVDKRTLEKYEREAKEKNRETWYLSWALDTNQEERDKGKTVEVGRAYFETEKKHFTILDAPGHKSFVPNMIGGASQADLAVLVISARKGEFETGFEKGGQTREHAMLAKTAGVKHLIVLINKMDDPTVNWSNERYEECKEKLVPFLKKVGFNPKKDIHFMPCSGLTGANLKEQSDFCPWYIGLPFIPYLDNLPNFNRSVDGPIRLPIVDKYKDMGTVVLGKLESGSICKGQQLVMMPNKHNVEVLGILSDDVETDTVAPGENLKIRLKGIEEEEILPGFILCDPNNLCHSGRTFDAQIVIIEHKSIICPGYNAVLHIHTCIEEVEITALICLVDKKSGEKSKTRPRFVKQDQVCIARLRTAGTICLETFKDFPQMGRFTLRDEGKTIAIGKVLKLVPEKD
T1 sequence (Q96SW2 whole entry): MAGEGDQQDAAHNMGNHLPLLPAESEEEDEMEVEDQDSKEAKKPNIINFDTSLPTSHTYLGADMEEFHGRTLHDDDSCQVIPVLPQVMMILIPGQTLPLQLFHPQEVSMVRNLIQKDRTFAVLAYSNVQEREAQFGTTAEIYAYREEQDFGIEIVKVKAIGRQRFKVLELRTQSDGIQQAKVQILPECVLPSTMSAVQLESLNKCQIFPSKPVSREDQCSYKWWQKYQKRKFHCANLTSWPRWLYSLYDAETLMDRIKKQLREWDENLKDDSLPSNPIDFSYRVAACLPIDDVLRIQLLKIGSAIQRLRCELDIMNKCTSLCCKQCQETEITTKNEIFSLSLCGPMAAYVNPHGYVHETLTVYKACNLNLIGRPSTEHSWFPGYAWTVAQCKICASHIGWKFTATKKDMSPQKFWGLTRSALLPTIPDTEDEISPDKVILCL
T1 sequence (Q16531 whole entry partner): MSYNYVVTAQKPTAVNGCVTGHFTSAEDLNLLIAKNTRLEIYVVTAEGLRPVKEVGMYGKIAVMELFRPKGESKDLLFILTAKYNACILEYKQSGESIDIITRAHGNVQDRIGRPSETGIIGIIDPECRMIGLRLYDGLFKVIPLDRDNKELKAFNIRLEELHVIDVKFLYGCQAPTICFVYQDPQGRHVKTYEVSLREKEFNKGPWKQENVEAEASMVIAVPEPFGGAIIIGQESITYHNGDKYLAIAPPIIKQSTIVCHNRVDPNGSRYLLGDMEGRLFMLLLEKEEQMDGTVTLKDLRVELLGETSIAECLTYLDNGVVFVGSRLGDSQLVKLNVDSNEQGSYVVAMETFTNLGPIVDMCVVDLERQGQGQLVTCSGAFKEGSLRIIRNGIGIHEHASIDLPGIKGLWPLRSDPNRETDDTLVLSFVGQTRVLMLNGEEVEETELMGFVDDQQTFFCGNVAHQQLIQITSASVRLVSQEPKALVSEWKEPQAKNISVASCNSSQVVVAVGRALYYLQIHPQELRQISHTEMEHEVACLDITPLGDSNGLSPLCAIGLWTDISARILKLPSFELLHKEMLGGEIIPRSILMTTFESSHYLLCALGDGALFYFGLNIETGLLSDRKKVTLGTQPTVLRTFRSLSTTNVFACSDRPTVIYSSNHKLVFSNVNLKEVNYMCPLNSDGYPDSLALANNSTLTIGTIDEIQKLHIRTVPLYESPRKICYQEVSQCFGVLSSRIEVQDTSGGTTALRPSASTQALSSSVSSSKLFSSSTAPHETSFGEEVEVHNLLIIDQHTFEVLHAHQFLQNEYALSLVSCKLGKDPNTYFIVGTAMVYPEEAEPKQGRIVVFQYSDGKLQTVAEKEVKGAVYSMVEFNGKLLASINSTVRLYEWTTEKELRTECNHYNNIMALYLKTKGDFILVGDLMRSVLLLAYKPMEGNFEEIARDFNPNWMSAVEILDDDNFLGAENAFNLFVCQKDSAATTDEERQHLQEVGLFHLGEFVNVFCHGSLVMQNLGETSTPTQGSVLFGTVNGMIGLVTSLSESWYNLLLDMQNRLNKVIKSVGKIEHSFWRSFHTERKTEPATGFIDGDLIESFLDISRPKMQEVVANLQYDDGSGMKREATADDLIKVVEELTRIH
Method in brief: (§1)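 Immunoblot densitometry quantifies target loss in hPBMCs after a 24 h compound exposure (50 nM, 500 nM). Percent remaining is normalised band intensity; DC50 is the concentration giving half the DMSO-control band grayscale.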

WEE1 = molecular target: T2, WEE1 (Homo sapiens, UniProt P30291+Q96SW2); experiment: Western blot degradation of WEE1 in hPBMCs (24 h)
T2 construct: The supernatant was aspirated as the extracted total cell protein; endogenous in cells; host or cells: human peripheral blood mononuclear cells (hPBMCs)
T2 sequence (P30291 whole entry): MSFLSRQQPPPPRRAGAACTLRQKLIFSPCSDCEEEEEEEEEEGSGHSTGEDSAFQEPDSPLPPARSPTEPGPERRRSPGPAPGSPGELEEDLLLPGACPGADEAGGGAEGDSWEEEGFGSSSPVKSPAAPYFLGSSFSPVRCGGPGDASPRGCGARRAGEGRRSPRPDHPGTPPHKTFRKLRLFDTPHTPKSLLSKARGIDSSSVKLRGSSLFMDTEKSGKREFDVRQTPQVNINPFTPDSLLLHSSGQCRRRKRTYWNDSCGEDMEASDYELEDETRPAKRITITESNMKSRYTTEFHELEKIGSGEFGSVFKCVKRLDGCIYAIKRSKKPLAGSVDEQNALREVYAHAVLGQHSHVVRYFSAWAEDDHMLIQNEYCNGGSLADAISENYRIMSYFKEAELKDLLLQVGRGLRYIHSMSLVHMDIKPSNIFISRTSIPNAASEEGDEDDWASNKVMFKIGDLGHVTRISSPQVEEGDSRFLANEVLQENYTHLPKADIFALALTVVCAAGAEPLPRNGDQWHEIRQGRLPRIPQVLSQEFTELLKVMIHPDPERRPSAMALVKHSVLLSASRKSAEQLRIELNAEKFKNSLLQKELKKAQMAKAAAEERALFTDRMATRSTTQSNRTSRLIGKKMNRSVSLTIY
T2 sequence (Q96SW2 whole entry): as the sequence (Q96SW2 whole entry) above
T2 sequence (Q16531 whole entry partner): as the sequence (Q16531 whole entry partner) above
Method in brief: as §1

IKZF1 = molecular target: T3, IKZF1 (Homo sapiens, UniProt Q13422+Q96SW2); experiment: Western blot degradation of IKZF1 in hPBMCs (24 h)
T3 construct: The supernatant was aspirated as the extracted total cell protein; endogenous in cells; host or cells: human peripheral blood mononuclear cells (hPBMCs)
T3 sequence (Q13422 whole entry): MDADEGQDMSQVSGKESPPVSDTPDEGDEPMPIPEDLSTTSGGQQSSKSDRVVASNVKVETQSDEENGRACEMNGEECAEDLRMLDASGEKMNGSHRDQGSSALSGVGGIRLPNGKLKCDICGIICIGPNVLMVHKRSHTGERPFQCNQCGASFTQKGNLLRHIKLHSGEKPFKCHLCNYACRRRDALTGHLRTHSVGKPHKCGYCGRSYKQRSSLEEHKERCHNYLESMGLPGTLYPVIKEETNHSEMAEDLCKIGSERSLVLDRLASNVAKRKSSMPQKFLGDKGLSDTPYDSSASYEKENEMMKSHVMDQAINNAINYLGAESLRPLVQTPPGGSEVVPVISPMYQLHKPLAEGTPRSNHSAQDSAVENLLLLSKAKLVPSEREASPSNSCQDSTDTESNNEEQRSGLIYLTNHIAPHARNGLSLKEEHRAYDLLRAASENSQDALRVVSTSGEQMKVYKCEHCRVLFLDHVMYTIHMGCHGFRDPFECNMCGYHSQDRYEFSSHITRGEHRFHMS
T3 sequence (Q96SW2 whole entry): as the sequence (Q96SW2 whole entry) above
T3 sequence (Q16531 whole entry partner): as the sequence (Q16531 whole entry partner) above
Method in brief: as §1

IKZF3 = molecular target: T4, IKZF3 (Homo sapiens, UniProt Q96SW2+Q9UKT9); experiment: Western blot degradation of IKZF3 in hPBMCs (24 h)
T4 construct: The supernatant was aspirated as the extracted total cell protein; endogenous in cells; host or cells: human peripheral blood mononuclear cells (hPBMCs)
Method in brief: as §1

CK1α = molecular target: T5, CK1α (Homo sapiens, UniProt P48729+Q96SW2); experiment: Western blot degradation of CK1α in hPBMCs (24 h)
T5 construct: The supernatant was aspirated as the extracted total cell protein; endogenous in cells; host or cells: human peripheral blood mononuclear cells (hPBMCs)
T5 sequence (P48729 whole entry): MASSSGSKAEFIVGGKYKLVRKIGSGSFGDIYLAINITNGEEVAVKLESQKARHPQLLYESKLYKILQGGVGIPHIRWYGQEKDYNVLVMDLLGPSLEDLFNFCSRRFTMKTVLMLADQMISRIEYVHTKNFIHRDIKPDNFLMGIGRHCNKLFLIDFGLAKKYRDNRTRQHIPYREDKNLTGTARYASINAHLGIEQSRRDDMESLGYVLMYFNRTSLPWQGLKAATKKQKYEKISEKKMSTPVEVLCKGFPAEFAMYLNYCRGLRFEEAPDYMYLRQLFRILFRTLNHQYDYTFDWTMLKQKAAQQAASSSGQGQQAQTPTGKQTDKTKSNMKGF
T5 sequence (Q96SW2 whole entry): as the sequence (Q96SW2 whole entry) above
T5 sequence (Q16531 whole entry partner): as the sequence (Q16531 whole entry partner) above
Method in brief: as §1

IKZF2 = molecular target: T6, IKZF2 (Homo sapiens, UniProt Q96SW2+Q9UKS7); experiment: Western blot degradation of IKZF2 in hPBMCs (24 h)
T6 construct: The supernatant was aspirated as the extracted total cell protein; endogenous in cells; host or cells: human peripheral blood mononuclear cells (hPBMCs)
T6 sequence (Q9UKS7 whole entry): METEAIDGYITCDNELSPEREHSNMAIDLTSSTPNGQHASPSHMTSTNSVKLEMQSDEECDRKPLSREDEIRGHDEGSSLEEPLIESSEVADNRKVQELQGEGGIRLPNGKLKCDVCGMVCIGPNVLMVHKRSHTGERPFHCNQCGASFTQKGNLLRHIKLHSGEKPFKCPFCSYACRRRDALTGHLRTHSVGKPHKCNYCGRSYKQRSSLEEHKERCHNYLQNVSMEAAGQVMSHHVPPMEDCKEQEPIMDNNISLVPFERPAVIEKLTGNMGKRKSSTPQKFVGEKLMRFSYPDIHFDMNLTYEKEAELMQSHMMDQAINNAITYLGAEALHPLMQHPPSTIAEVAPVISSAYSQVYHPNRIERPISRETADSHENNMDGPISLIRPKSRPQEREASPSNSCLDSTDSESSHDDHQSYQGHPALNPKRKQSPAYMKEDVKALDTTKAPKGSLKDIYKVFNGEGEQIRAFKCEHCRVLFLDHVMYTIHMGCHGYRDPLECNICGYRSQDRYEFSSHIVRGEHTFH
T6 sequence (Q96SW2 whole entry): as the sequence (Q96SW2 whole entry) above
T6 sequence (Q16531 whole entry partner): as the sequence (Q16531 whole entry partner) above
Method in brief: as §1

| Compound | GSPT1 substrate protein remaining % (GSPT1) | WEE1 substrate protein remaining % (WEE1) | IKZF1 substrate protein remaining % (IKZF1) | IKZF3 substrate protein remaining % (IKZF3) | CK1α substrate protein remaining % (CK1α) | IKZF2 substrate protein remaining % (IKZF2) |
| --- | --- | --- | --- | --- | --- | --- |
| O=C1CCN(N2Cc3cc(CN4CCC(c5ccc(Br)cc5)CC4)ccc3C2=O)C(=O)N1 [GT-06886, 1-(5-((4-(4-bromophenyl)piperidin-1-yl)methyl)-1-oxoisoindolin-2-yl)dihydropyrimidine-2,4(1H,3H)-dione] | A (0% ≤ substrate protein remaining % ≤80%) | B (80%< substrate protein remaining % ≤100%) | B (80%< substrate protein remaining % ≤100%) | B (80%< substrate protein remaining % ≤100%) | B (80%< substrate protein remaining % ≤100%) | A (0% ≤ substrate protein remaining % ≤80%) |
| O=C1CCN(N2Cc3cc(CN4CCC(c5ccccc5Cl)CC4)ccc3C2=O)C(=O)N1 [GT-06887, 1-(5-((4-(2-chlorophenyl)piperidin-1-yl)methyl)-1-oxoisoindolin-2-yl)dihydropyrimidine-2,4(1H,3H)-dione] | A (0% ≤ substrate protein remaining % ≤80%) | A (0% ≤ substrate protein remaining % ≤80%) | B (80%< substrate protein remaining % ≤100%) | B (80%< substrate protein remaining % ≤100%) | B (80%< substrate protein remaining % ≤100%) | A (0% ≤ substrate protein remaining % ≤80%) |
| O=C1CCN(N2Cc3cc(CN4CCC(c5ccc(Cl)cc5)CC4)ccc3C2=O)C(=O)N1 [GT-06888, 1-(5-((4-(4-chlorophenyl)piperidin-1-yl)methyl)-1-oxoisoindolin-2-yl)dihydropyrimidine-2,4(1H,3H)-dione] | A (0% ≤ substrate protein remaining % ≤80%) | A (0% ≤ substrate protein remaining % ≤80%) | B (80%< substrate protein remaining % ≤100%) | B (80%< substrate protein remaining % ≤100%) | B (80%< substrate protein remaining % ≤100%) | A (0% ≤ substrate protein remaining % ≤80%) |
| O=C1CCN(N2Cc3cc(CN4CCC(c5ccccc5F)CC4)ccc3C2=O)C(=O)N1 [GT-06889, 1-(5-((4-(2-fluorophenyl)piperidin-1-yl)methyl)-1-oxoisoindolin-2-yl)dihydropyrimidine-2,4(1H,3H)-dione] | A (0% ≤ substrate protein remaining % ≤80%) | A (0% ≤ substrate protein remaining % ≤80%) | B (80%< substrate protein remaining % ≤100%) | B (80%< substrate protein remaining % ≤100%) | B (80%< substrate protein remaining % ≤100%) | A (0% ≤ substrate protein remaining % ≤80%) |
| O=C1CCN(N2Cc3cc(CN4CCC(c5ccc(F)cc5)CC4)ccc3C2=O)C(=O)N1 [GT-06890, 1-(5-((4-(4-fluorophenyl)piperidin-1-yl)methyl)-1-oxoisoindolin-2-yl)dihydropyrimidine-2,4(1H,3H)-dione] | A (0% ≤ substrate protein remaining % ≤80%) | A (0% ≤ substrate protein remaining % ≤80%) | B (80%< substrate protein remaining % ≤100%) | B (80%< substrate protein remaining % ≤100%) | B (80%< substrate protein remaining % ≤100%) | B (80%< substrate protein remaining % ≤100%) |
| O=C1CCN(N2Cc3cc(CN4CCC(c5ccccc5C(F)(F)F)CC4)ccc3C2=O)C(=O)N1 [GT-06891, 1-(1-oxo-5-((4-(2-(trifluoromethyl)phenyl)piperidin-1-yl)methyl)isoindolin-2-yl)dihydropyrimidine-2,4(1H,3H)-dione] | A (0% ≤ substrate protein remaining % ≤80%) | A (0% ≤ substrate protein remaining % ≤80%) | B (80%< substrate protein remaining % ≤100%) | B (80%< substrate protein remaining % ≤100%) | B (80%< substrate protein remaining % ≤100%) | A (0% ≤ substrate protein remaining % ≤80%) |
| O=C1CCN(N2C(=O)c3ccc(CN4CCC(c5cccc(F)c5Cl)CC4)cc3C2=O)C(=O)N1 [GT-06895, 5-((4-(2-chloro-3-fluorophenyl)piperidin-1-yl)methyl)-2-(2,4-dioxotetrahydropyrimidin-1(2H)-yl)isoindoline-1,3-dione] | B (80%< substrate protein remaining % ≤100%) | B (80%< substrate protein remaining % ≤100%) | A (0% ≤ substrate protein remaining % ≤80%) | B (80%< substrate protein remaining % ≤100%) | B (80%< substrate protein remaining % ≤100%) | B (80%< substrate protein remaining % ≤100%) |
| O=C1CCN(N2C(=O)c3ccc(CN4CC=C(c5cccc(F)c5Cl)CC4)cc3C2=O)C(=O)N1 [GT-06896, 5-((4-(2-chloro-3-fluorophenyl)-3,6-dihydropyridin-1(2H)-yl)methyl)-2-(2,4-dioxotetrahydropyrimidin-1(2H)-yl)isoindoline-1,3-dione] | B (80%< substrate protein remaining % ≤100%) | B (80%< substrate protein remaining % ≤100%) | A (0% ≤ substrate protein remaining % ≤80%) | B (80%< substrate protein remaining % ≤100%) | B (80%< substrate protein remaining % ≤100%) | B (80%< substrate protein remaining % ≤100%) |
| O=C1CCN(N2C(=O)c3ccc(CN4CCN(c5ccc(F)cn5)CC4)cc3C2=O)C(=O)N1 [GT-06965, 2-(2,4-dioxotetrahydropyrimidin-1(2H)-yl)-5-((4-(5-fluoropyridin-2-yl)piperazin-1-yl)methyl)isoindoline-1,3-dione] | B (80%< substrate protein remaining % ≤100%) | B (80%< substrate protein remaining % ≤100%) | B (80%< substrate protein remaining % ≤100%) | B (80%< substrate protein remaining % ≤100%) | B (80%< substrate protein remaining % ≤100%) | A (0% ≤ substrate protein remaining % ≤80%) |
| O=C1CCN(N2C(=O)c3ccc(CN4CCN(c5ccc(C(F)(F)F)cn5)CC4)cc3C2=O)C(=O)N1 [GT-06968, 2-(2,4-dioxotetrahydropyrimidin-1(2H)-yl)-5-((4-(5-(trifluoromethyl)pyridin-2-yl)piperazin-1-yl)methyl)isoindoline-1,3-dione] | B (80%< substrate protein remaining % ≤100%) | A (0% ≤ substrate protein remaining % ≤80%) | B (80%< substrate protein remaining % ≤100%) | B (80%< substrate protein remaining % ≤100%) | B (80%< substrate protein remaining % ≤100%) | A (0% ≤ substrate protein remaining % ≤80%) |
| O=C1CCN(N2C(=O)c3ccc(CN4CCN(c5ncc(Cl)cc5Cl)CC4)cc3C2=O)C(=O)N1 [GT-06969, 5-((4-(3,5-dichloropyridin-2-yl)piperazin-1-yl)methyl)-2-(2,4-dioxotetrahydropyrimidin-1(2H)-yl)isoindoline-1,3-dione] | B (80%< substrate protein remaining % ≤100%) | A (0% ≤ substrate protein remaining % ≤80%) | B (80%< substrate protein remaining % ≤100%) | B (80%< substrate protein remaining % ≤100%) | B (80%< substrate protein remaining % ≤100%) | A (0% ≤ substrate protein remaining % ≤80%) |
| O=C1CCN(N2C(=O)c3ccc(CN4CCN(c5nccc(I)c5F)CC4)cc3C2=O)C(=O)N1 [GT-06970, 2-(2,4-dioxotetrahydropyrimidin-1(2H)-yl)-5-((4-(3-fluoro-4-iodopyridin-2-yl)piperazin-1-yl)methyl)isoindoline-1,3-dione] | B (80%< substrate protein remaining % ≤100%) | A (0% ≤ substrate protein remaining % ≤80%) | B (80%< substrate protein remaining % ≤100%) | B (80%< substrate protein remaining % ≤100%) | B (80%< substrate protein remaining % ≤100%) | A (0% ≤ substrate protein remaining % ≤80%) |
| O=C1CCN(N2C(=O)c3ccc(CN4CCN(c5cccnc5)CC4)cc3C2=O)C(=O)N1 [GT-06971, 2-(2,4-dioxotetrahydropyrimidin-1(2H)-yl)-5-((4-(pyridin-3-yl)piperazin-1-yl)methyl)isoindoline-1,3-dione] | B (80%< substrate protein remaining % ≤100%) | A (0% ≤ substrate protein remaining % ≤80%) | B (80%< substrate protein remaining % ≤100%) | B (80%< substrate protein remaining % ≤100%) | B (80%< substrate protein remaining % ≤100%) | A (0% ≤ substrate protein remaining % ≤80%) |
